Test results taken from patent US8741884B2, “Compounds for the treatment of hepatitis C” (priority 2010, dated 2014).

What follows are compounds tested on HCV pseudoparticles (genotype 1a HCV E1 and E2 envelope, H77C isolate) (assay: microbe, parasite or virus in culture). Details: Hepatitis C virus, Huh-7, 48 h, class symbol; HCV pseudoparticles genotype 1a (H77C), Huh7 cells, luciferase 2 days after infection, average of duplicates.
Assay type: cell-based

SMILES | EC50
O=C(O)CCCCNC(=O)c1ccc2cc1OCCCCCCOc1ccc(cc1)CNc1nc(nc(OCC(F)(F)F)n1)N2 [Example 1408] | 0.1 to 100 nM
CC(C)(C)OC(=O)NC(CNC(=O)c1ccc2cc1OCCCCCCOc1ccc(cc1)CNc1nc(nc(OCC(F)(F)F)n1)N2)C(=O)O (centres unmarked) [Example 1409] | 0.1 to 100 nM
CC(C)(C)OC(=O)N1CCC(NC(=O)c2ccc3cc2OCCCCCCOc2ccc(cc2)CNc2nc(nc(OCC(F)(F)F)n2)N3)(C(=O)O)CC1 [Example 1410] | 100 to 1000 nM
CC(C)(C)OC(=O)N[C@@H](CCNC(=O)c1ccc2cc1OCCCCCCOc1ccc(cc1)CNc1nc(nc(OCC(F)(F)F)n1)N2)C(=O)O [Example 1411] | 0.1 to 100 nM
CC(C)(C)OC(=O)N[C@H](CCNC(=O)c1ccc2cc1OCCCCCCOc1ccc(cc1)CNc1nc(nc(OCC(F)(F)F)n1)N2)C(=O)O [Example 1412] | 0.1 to 100 nM
O=C(NCCC[C@H](NC(=O)c1ccc2cc1OCCCCCCOc1ccc(cc1)CNc1nc(nc(OCC(F)(F)F)n1)N2)C(=O)O)OCc1ccccc1 [Example 1413] | 0.1 to 100 nM
O=C(NCC1CCNC1)c1ccc2cc1OCCCCCCOc1ccc(cc1)CNc1nc(nc(OCC(F)(F)F)n1)N2 (centres unmarked) [Example 1501] | 0.1 to 100 nM
COC(=O)[C@H](CCN)NC(=O)c1ccc2cc1OCCCCCCOc1ccc(cc1)CNc1nc(nc(OCC(F)(F)F)n1)N2 [Example 1502] | 0.1 to 100 nM
O=C(NCC1CCCN1)c1ccc2cc1OCCCCCCOc1ccc(cc1)CNc1nc(nc(OCC(F)(F)F)n1)N2 (centres unmarked) [Example 1503] | 0.1 to 100 nM
O=C(NCC1(C(=O)O)CCNCC1)c1ccc2cc1OCCCCCCOc1ccc(cc1)CNc1nc(nc(OCC(F)(F)F)n1)N2 [Example 1504] | 0.1 to 100 nM
CC(C)(C)OC(=O)N1CCCC(C(NC(=O)c2ccc3cc2OCCCCCCOc2ccc(cc2)CNc2nc(nc(OCC(F)(F)F)n2)N3)C(=O)O)C1 (centres unmarked) [Example 1551] | 0.1 to 100 nM
O=C(NC(C(=O)O)C1CCCNC1)c1ccc2cc1OCCCCCCOc1ccc(cc1)CNc1nc(nc(OCC(F)(F)F)n1)N2 (centres unmarked) [Example 1552] | 0.1 to 100 nM
NC[C@@H](NC(=O)c1ccc2cc1OCCCCCCOc1ccc(cc1)CNc1nc(nc(OCC(F)(F)F)n1)N2)C(=O)O [Example 1555] | 100 to 1000 nM
CC(C)(C)OC(=O)NC[C@@H](NC(=O)c1ccc2cc1OCCCCCCOc1ccc(cc1)CNc1nc(nc(OCC(F)(F)F)n1)N2)C(=O)O [Example 1556] | 100 to 1000 nM
CC(C)(C)OC(=O)N1CCC(CNC(=O)c2ccc3cc2OCCCCCCOc2ccc(cc2)CNc2nc(nc(OCC(F)(F)F)n2)N3)(C(=O)O)CC1 [Example 1557] | 100 to 1000 nM
CC(C)(C)OC(=O)N1C[C@H](C(=O)O)[C@H](NC(=O)c2ccc3cc2OCCCCCCOc2ccc(cc2)CNc2nc(nc(OCC(F)(F)F)n2)N3)C1 [Example 1558] | 0.1 to 100 nM
CC(C)(C)OC(=O)NC[C@H](NC(=O)c1ccc2cc1OCCCCCCOc1ccc(cc1)CNc1nc(nc(OCC(F)(F)F)n1)N2)C(=O)O [Example 1560] | 0.1 to 100 nM
CC(C)(C)OC(=O)NCC[C@H](NC(=O)c1ccc2cc1OCCCCCCOc1ccc(cc1)CNc1nc(nc(OCC(F)(F)F)n1)N2)C(=O)O [Example 1561] | 0.1 to 100 nM
O=C(NC[C@H](NC(=O)c1ccc2cc1OCCCCCCOc1ccc(cc1)CNc1nc(nc(OCC(F)(F)F)n1)N2)C(=O)O)c1ccccc1 [Example 1562] | 0.1 to 100 nM

SMILES | EC50
N=C(N)NCCC[C@H](NC(=O)c1ccc2cc1OCCOCCOCCOc1ccc(cc1)CNc1nc(nc(OCC(F)(F)F)n1)N2)C(=O)O [Example 1602] | 0.1 to 100 nM
N=C(N)NCCC[C@@H](NC(=O)c1ccc2cc1OCCOCCOCCOc1ccc(cc1)CNc1nc(nc(OCC(F)(F)F)n1)N2)C(=O)O [Example 1603] | 0.1 to 100 nM
COC(=O)[C@H](CNC(=O)OC(C)(C)C)NC(=O)c1ccc2cc1OCCOCCOCCOc1ccc(cc1)CNc1nc(nc(OCC(F)(F)F)n1)N2 [Example 1604] | 0.1 to 100 nM
CC(C)(C)OC(=O)N1CCCC(C(NC(=O)c2ccc3cc2OCCOCCOCCOc2ccc(cc2)CNc2nc(nc(OCC(F)(F)F)n2)N3)C(=O)O)C1 (centres unmarked) [Example 1605] | 0.1 to 100 nM
O=C(NC(C(=O)O)C1CCCNC1)c1ccc2cc1OCCOCCOCCOc1ccc(cc1)CNc1nc(nc(OCC(F)(F)F)n1)N2 (centres unmarked) [Example 1606] | 0.1 to 100 nM
COC(=O)C(NC(=O)c1ccc2cc1OCCOCCOCCOc1ccc(cc1)CNc1nc(nc(OCC(F)(F)F)n1)N2)C1CCCNC1 (centres unmarked) [Example 1607] | 0.1 to 100 nM
CC(C)(C)OC(=O)NC[C@H](NC(=O)c1ccc2cc1OCCOCCOCCOc1ccc(cc1)CNc1nc(nc(OCC(F)(F)F)n1)N2)C(=O)O [Example 1608] | 0.1 to 100 nM
CC(C)(C)OC(=O)NC[C@H](NC(=O)c1ccc2cc1OCCCCCCOc1ccc(cc1)CNc1nc(nc(OCC(F)(F)F)n1)N2)C(N)=O [Example 1700] | 0.1 to 100 nM
COC(=O)[C@H](CNC(C)=O)NC(=O)c1ccc2cc1OCCCCCCOc1ccc(cc1)CNc1nc(nc(OCC(F)(F)F)n1)N2 [Example 1701] | 0.1 to 100 nM
COC(=O)[C@H](CNS(C)(=O)=O)NC(=O)c1ccc2cc1OCCCCCCOc1ccc(cc1)CNc1nc(nc(OCC(F)(F)F)n1)N2 [Example 1702] | 0.1 to 100 nM
CNC(=O)NC[C@H](NC(=O)c1ccc2cc1OCCCCCCOc1ccc(cc1)CNc1nc(nc(OCC(F)(F)F)n1)N2)C(=O)OC [Example 1706] | 0.1 to 100 nM
CNC(=O)NC[C@H](NC(=O)c1ccc2cc1OCCCCCCOc1ccc(cc1)CNc1nc(nc(OCC(F)(F)F)n1)N2)C(=O)O [Example 1707] | 0.1 to 100 nM
CC(=O)NC[C@H](NC(=O)c1ccc2cc1OCCCCCCOc1ccc(cc1)CNc1nc(nc(OCC(F)(F)F)n1)N2)C(=O)O [Example 1711] | 0.1 to 100 nM
COC(=O)c1ccc2cc1OCCCCOc1cccc(c1)CNc1nc(nc(OCC(F)(F)F)n1)N2 [Example 1801] | 100 to 1000 nM
CN(C)CC(C)(C)CNC(=O)c1ccc2cc1OCCCCOc1cccc(c1)CNc1nc(nc(OCC(F)(F)F)n1)N2 [Example 1802] | 0.1 to 100 nM
COC(=O)c1ccc2cc1OCCCCCCOc1cccc(c1)CNc1nc(nc(OCC(F)(F)F)n1)N2 [Example 1803] | 1000 to 50000 nM
CN(C)CC(C)(C)CNC(=O)c1ccc2cc1OCCCCCCOc1cccc(c1)CNc1nc(nc(OCC(F)(F)F)n1)N2 [Example 1804] | 100 to 1000 nM
CN(C)CC(C)(C)CNC(=O)c1ccc2cc1OCCCCCCOc1ccccc1CNc1nc(nc(OCC(F)(F)F)n1)N2 [Example 1806] | 100 to 1000 nM
CN(C)CC(C)(C)CNC(=O)c1ccc2cc1OCCCCCCOCC(c1ccccc1)Nc1nc(nc(OCC(F)(F)F)n1)N2 (centres unmarked) [Example 1807] | 1000 to 50000 nM

SMILES | EC50
FC(F)(F)COc1nc2nc(n1)Nc1cccc(c1)OCC=CCOc1ccc(cc1)CN2 [Example 2001] | 0.1 to 100 nM
FC(F)(F)COc1nc2nc(n1)Nc1cccc(c1)OCC=CCOc1cccc(c1)N2 [Example 2003] | 0.1 to 100 nM
FC(F)(F)COc1nc2nc(n1)Nc1cccc(c1)OCCCCOc1cccc(c1)N2 [Example 2004] | 0.1 to 100 nM
COC(=O)c1ccc2cc1OCC=CCOc1ccc(cc1)CNc1nc(nc(OCC(F)(F)F)n1)N2 [Example 2005] | 0.1 to 100 nM
O=C(NCC1(CN2CCCC2)CC1)c1ccc2cc1OCC=CCOc1ccc(cc1)CNc1nc(nc(OCC(F)(F)F)n1)N2 [Example 2006] | 0.1 to 100 nM
CN(C)CC(C)(C)CNC(=O)c1ccc2cc1OCC=CCOc1ccc(cc1)CNc1nc(nc(OCC(F)(F)F)n1)N2 [Example 2007] | 100 to 1000 nM
FC(F)(F)COc1nc2nc(n1)NC1(CC1)c1ccc(cc1)OC/C=C/COc1cccc(c1)N2 [Example 2008] | 0.1 to 100 nM
FC(F)(F)COc1nc2nc(n1)NC1(CC1)c1ccc(cc1)OCCCCOc1cccc(c1)N2 [Example 2009] | 0.1 to 100 nM
COC(=O)c1ccc2cc1OCCCN(C(=O)OC(C)(C)C)CCCOc1ccc(cc1)CNc1nc(nc(OCC(F)(F)F)n1)N2 [Example 3001] | 0.1 to 100 nM
CC(C)(C)OC(=O)N1CCCOc2ccc(cc2)CNc2nc(nc(OCC(F)(F)F)n2)Nc2ccc(C(=O)O)c(c2)OCCC1 [Example 3002] | 0.1 to 100 nM
CC(C)(C)OC(=O)N1CCCOc2ccc(cc2)CNc2nc(nc(OCC(F)(F)F)n2)Nc2ccc(C(=O)NCC3(CN4CCCC4)CC3)c(c2)OCCC1 [Example 3003] | 0.1 to 100 nM
COC(=O)N1CCCOc2ccc(cc2)CNc2nc(nc(OCC(F)(F)F)n2)Nc2ccc(C(=O)NCC3(CN4CCCC4)CC3)c(c2)OCCC1 [Example 3004] | 0.1 to 100 nM
CCOC(=O)N1CCCOc2ccc(cc2)CNc2nc(nc(OCC(F)(F)F)n2)Nc2ccc(C(=O)NCC3(CN4CCCC4)CC3)c(c2)OCCC1 [Example 3005] | 0.1 to 100 nM
CC(C)OC(=O)N1CCCOc2ccc(cc2)CNc2nc(nc(OCC(F)(F)F)n2)Nc2ccc(C(=O)NCC3(CN4CCCC4)CC3)c(c2)OCCC1 [Example 3006] | 0.1 to 100 nM
CNC(=O)N1CCCOc2ccc(cc2)CNc2nc(nc(OCC(F)(F)F)n2)Nc2ccc(C(=O)NCC3(CN4CCCC4)CC3)c(c2)OCCC1 [Example 3007] | 0.1 to 100 nM
CCNC(=O)N1CCCOc2ccc(cc2)CNc2nc(nc(OCC(F)(F)F)n2)Nc2ccc(C(=O)NCC3(CN4CCCC4)CC3)c(c2)OCCC1 [Example 3008] | 0.1 to 100 nM
CC(C)NC(=O)N1CCCOc2ccc(cc2)CNc2nc(nc(OCC(F)(F)F)n2)Nc2ccc(C(=O)NCC3(CN4CCCC4)CC3)c(c2)OCCC1 [Example 3009] | 0.1 to 100 nM
CN1CCCOc2ccc(cc2)CNc2nc(nc(OCC(F)(F)F)n2)Nc2ccc(C(=O)NCC3(CN4CCCC4)CC3)c(c2)OCCC1 [Example 3010] | 0.1 to 100 nM
CCN1CCCOc2ccc(cc2)CNc2nc(nc(OCC(F)(F)F)n2)Nc2ccc(C(=O)NCC3(CN4CCCC4)CC3)c(c2)OCCC1 [Example 3011] | 0.1 to 100 nM

Same assay, conditions: Hepatitis C virus, Huh-7, 48 h, numeric value; HCV pseudoparticles genotype 1a (H77C), Huh7 cells, luciferase 2 days after infection, average of duplicates

SMILES | EC50
CC(C)(C)OC(=O)N[C@H](CCNC(=O)c1ccc2cc1OCCCCCCOc1ccc(cc1)CNc1nc(nc(OCC(F)(F)F)n1)N2)C(=O)O [Example 1412] | 24.8 nM
CC(C)(C)OC(=O)NC[C@@H](NC(=O)c1ccc2cc1OCCCCCCOc1ccc(cc1)CNc1nc(nc(OCC(F)(F)F)n1)N2)C(=O)O [Example 1556] | 101 nM
O=C(NC[C@H](NC(=O)c1ccc2cc1OCCCCCCOc1ccc(cc1)CNc1nc(nc(OCC(F)(F)F)n1)N2)C(=O)O)c1ccccc1 [Example 1562] | 28.7 nM
CC(C)(C)OC(=O)N1CCCC(C(NC(=O)c2ccc3cc2OCCOCCOCCOc2ccc(cc2)CNc2nc(nc(OCC(F)(F)F)n2)N3)C(=O)O)C1 (centres unmarked) [Example 1605] | 23 nM
CC(C)(C)OC(=O)NC[C@H](NC(=O)c1ccc2cc1OCCOCCOCCOc1ccc(cc1)CNc1nc(nc(OCC(F)(F)F)n1)N2)C(=O)O [Example 1608] | 56.2 nM
CN(C)CC(C)(C)CNC(=O)c1ccc2cc1OCCCCCCOc1cccc(c1)CNc1nc(nc(OCC(F)(F)F)n1)N2 [Example 1804] | 239 nM
CN(C)CC(C)(C)CNC(=O)c1ccc2cc1OCC=CCOc1ccc(cc1)CNc1nc(nc(OCC(F)(F)F)n1)N2 [Example 2007] | 159 nM
FC(F)(F)COc1nc2nc(n1)NC1(CC1)c1ccc(cc1)OCCCCOc1cccc(c1)N2 [Example 2009] | 18 nM
CCNC(=O)N1CCCOc2ccc(cc2)CNc2nc(nc(OCC(F)(F)F)n2)Nc2ccc(C(=O)NCC3(CN4CCCC4)CC3)c(c2)OCCC1 [Example 3008] | 5.36 nM

Same assay, conditions: read-out: EC50

SMILES | EC50
O=C(NC(C(=O)O)C1CCNC1)c1ccc2cc1OCCCCCCOc1ccc(cc1)CNc1nc(nc(OCC(F)(F)F)n1)N2 (centres unmarked) [Example 1553] | 0.1 to 100 nM
NC[C@H](NC(=O)c1ccc2cc1OCCCCCCOc1ccc(cc1)CNc1nc(nc(OCC(F)(F)F)n1)N2)C(=O)O [Example 1559] | 0.1 to 100 nM
